Test results reported in US11498921B1, “Pyrimidine or pyridine compounds, preparation method therefor and pharmaceutical uses thereof” (INVENTISBIO CO., LTD., priority 2014, dated 2022).
Counter-ions that a name gives are not always drawn.

Key:
Format in all cases: cell-based
[1] = tested on: LoVo cells (wild-type EGFR human colon adenocarcinoma); assay: Cell growth inhibition (Cell Titer-Glo), LoVo; settings: 72 hours drug treatment, 3 nM to 10 μM
Description: (§1) Experiment of Cell Growth Inhibition
(§2) The LoVo cell line is a wild-type EGFR human colon adenocarcinoma cell, and is grown in F-12K medium (GIBCO) containing 10% FBS. NCI-H2073 cell line is a wild-type EGFR human non-small cell lung cancer cell and grown in ACL-4 medium containing 10% FBS. The growth rate of NCI-H1975, LoVo and NCI-H2073 cells was detected by Cell Titer-Glo luminescence activity assay (Promega #G7572).
(§3) Briefly, trypsin was used for digesting cells in the logarithmic growth phase. 96-well plates were seeded with 50,000 Lovo or NCI-H2073 cells, 2500-3000 NCI-H1975 cells per well and provided with blank control wells containing only nutrient solution without inoculated cell, and the plates were incubated in a humidified incubator with 5% CO2 at 37° C. […] The concentration of test drug in NCI-H1975 cells was from 0.03 nM to 100 nM, and that in LoVo and NCI-H2073 cells was from 3 nM to 10 μM. The cell culture medium containing the different compounds was then added to a 96-well cell plate in which one cell control well comprising cell culture medium only containing DMSO was provided. After a drug treatment for 72 hours, the cell plates were removed from the incubator and allowed to stand at room temperature for 30 minutes. Next, Cell Titer-Glo reagent was added to the wells and the 96-well cell plate was shaken at room temperature for 10 minutes to induce cell lysis. The 96-well cell plate was placed on the bench for 2 minutes to stabilize the luminescence signal. Finally, the 96-well cell plate was placed in an EnVision Multi-labeled Microplate Reader (PerkinElmer), and the signal was read with an integral time of 0.5 seconds.
(§4) Formula: Percentage of cell growth inhibition %=(maximum signal−compound signal)/(maximum signal−minimum signal)*100%
(§5) The maximal signal was obtained from the cell control well which were treated with the DMSO solution having no any compound;
(§6) The compound signal was obtained from the drug-treated cell wells to which the compound was added;
(§7) The minimum signal was obtained from a blank control well to which no cells and only nutrient solution was added.

[2] = tested on: NCI-H1975 cells (T790M and L858R EGFR mutations); assay: Cell growth inhibition (Cell Titer-Glo), NCI-H1975; settings: Homo sapiens, 72 hours drug treatment, 0.03 nM to 100 nM
Description: as §1, §2, §3, §4, §5, §6, §7

[3] = tested on: NCI-H2073 cells (wild-type EGFR human non-small cell lung cancer); assay: Cell growth inhibition (Cell Titer-Glo), NCI-H2073; settings: 72 hours drug treatment, 3 nM to 10 μM
Description: as §1
as §2, with “The compounds that were preferentially targeted for EGFR targeting certain mutations and relatively weak in wild-type EGFR were identified by determining the growth of cells. The NCI-H1975 cell line is a human non-small cell lung cancer cell containing T790M and L858R EGFR mutations, and the cell is grown in RPMI-1640 medium (GIBCO) containing 10% fetal bovine serum (FBS). The LoVo” for “The LoVo”
Briefly, trypsin was used for digesting cells in the logarithmic growth phase. 96-well plates were seeded with 50,000 Lovo or NCI-H2073 cells, 2500-3000 NCI-H1975 cells per well and provided with blank control wells containing only nutrient solution without inoculated cell, and the plates were incubated in a humidified incubator with 5% CO2 at 37° C. After 24 hours, the DMSO solution of the different compounds was diluted with a cell culture medium at 3.16 times per time to eight different concentrations from high to low levels. The concentration of test drug in NCI-H1975 cells was from 0.03 nM to 100 nM, and that in LoVo and NCI-H2073 cells was from 3 nM to 10 μM. The cell culture medium containing the different compounds was then added to a 96-well cell plate in which one cell control well comprising cell culture medium only containing DMSO was provided. After a drug treatment for 72 hours, the cell plates were removed from the incubator and allowed to stand at room temperature for 30 minutes. Next, Cell Titer-Glo reagent was added to the wells and the 96-well cell plate was shaken at room temperature for 10 minutes to induce cell lysis. The 96-well cell plate was placed on the bench for 2 minutes to stabilize the luminescence signal. Finally, the 96-well cell plate was placed in an EnVision Multi-labeled Microplate Reader (PerkinElmer), and the signal was read with an integral time of 0.5 seconds.
as §4, §5, §6, §7

| IC50 [1] | IC50 [2] | IC50 [3] | SMILES |
| --- | --- | --- | --- |
| 4980 nM | > 100 nM |  | C=CC(=O)Nc1cc(Nc2nccc(-c3cn(C)c4ccccc34)n2)c(OC)cc1N(C)CCOC [6. (HCl)n] |
| 3020 nM | > 100 nM |  | C=CC(=O)Nc1cc(Nc2nccc(-c3cn(C)c4ccccc34)n2)c(OC)cc1N(C)CCS(C)(=O)=O [10. (MsOH)3] |
| 1270 nM | 35.4 nM |  | C=CC(=O)Nc1cc(Nc2nccc(-c3cn(C)c4ccccc34)n2)c(OC)cc1N(C)CCN1CCC1 [11. (MsOH)2] |
| 1720 nM | 35.2 nM |  | C=CC(=O)Nc1cc(Nc2nccc(-c3cn(C)c4ccccc34)n2)c(OC)cc1N(C)CCN1CCCC1 [12. (MsOH)2] |
| 444 nM | > 100 nM |  | C=CC(=O)Nc1cc(Nc2nccc(-c3cn(C)c4ccccc34)n2)c(OC)cc1N1CCC(N(C)C)CC1 [13. (MsOH)2] |
| 481 nM | > 100 nM |  | C=CC(=O)Nc1cc(Nc2nccc(-c3cn(C)c4ccccc34)n2)c(OC)cc1N1CCC(N2CCC2)CC1 [14. (MsOH)2] |
| 333 nM | > 100 nM |  | C=CC(=O)Nc1cc(Nc2nccc(-c3cn(C)c4ccccc34)n2)c(OC)cc1N1CCC(N2CCCC2)CC1 [15. (MsOH)2] |
| > 10000 nM | > 100 nM |  | C=CC(=O)Nc1cc(Nc2nccc(-c3cn(C)c4ccccc34)n2)c(OC)cc1N1CCC(OC)C1 (stereo not shown) [17. (MsOH)2] |
| 520 nM | 43.6 nM |  | C=CC(=O)Nc1cc(Nc2nccc(-c3cn(C)c4ccccc34)n2)c(OC)cc1N1CCC(N2CCC2)C1 (stereo not shown) [18. (MsOH)3] |
| 955 nM | 48.5 nM |  | C=CC(=O)Nc1cc(Nc2nccc(-c3cn(C)c4ccccc34)n2)c(OC)cc1N1CCC(N2CCCC2)C1 (stereo not shown) [19. MsOH] |
| 954 nM | > 100 nM |  | C=CC(=O)Nc1cc(Nc2nccc(-c3cn(C)c4ccccc34)n2)c(OC)cc1N1CCC(N2CCN(C)CC2)C1 (stereo not shown) [20. (MsOH)4] |
| > 10000 nM | > 100 nM |  | C=CC(=O)Nc1cc(Nc2nccc(-c3cn(C)c4ccccc34)n2)c(OC)cc1N1CC(OC)C1 [21. (MsOH)2] |
| 2580 nM | > 100 nM |  | C=CC(=O)Nc1cc(Nc2nccc(-c3cn(C)c4ccccc34)n2)c(OC)cc1N1CC(N2CCN(C)CC2)C1 [24. (MsOH)3] |
| 5250 nM | > 100 nM |  | C=CC(=O)Nc1cc(Nc2nccc(-c3cn(C)c4ccccc34)n2)c(OC)cc1N1CC(N2CCOCC2)C1 [25. (MsOH)2] |
| 5130 nM | > 100 nM |  | C=CC(=O)Nc1cc(Nc2nccc(-c3cn(C)c4ccccc34)n2)c(OC)cc1N1CCC(N2CCOCC2)C1 (stereo not shown) [26. (MsOH)2] |
| 1810 nM | 84 nM |  | C=CC(=O)Nc1cc(Nc2nccc(-c3cn(C)c4ccccc34)n2)c(OC)cc1N1CCC(N2CCOCC2)CC1 [27. (MsOH)3] |
| 2550 nM | > 100 nM |  | C=CC(=O)Nc1cc(Nc2nccc(-c3cn(C)c4ccccc34)n2)c(OC)cc1OCCN1CCOCC1 [30. (MsOH)2] |
| 846 nM | > 100 nM |  | C=CC(=O)Nc1cc(Nc2nccc(-c3cn(C)c4ccccc34)n2)c(OC)cc1OCCN1CCN(C)CC1 [31. (MsOH)3] |
| > 10000 nM | > 100 nM |  | C=CC(=O)Nc1cc(Nc2nccc(-c3cn(C)c4ccccc34)n2)c(OC)cc1OCCOC [32. (MsOH)] |
| 1430 nM | > 100 nM |  | C=CC(=O)Nc1cc(Nc2nccc(-c3cn(C)c4ccccc34)n2)c(OC)cc1N(CCOC)CCOC [33. HCl] |
| 446 nM | 39.9 nM |  | C=CC(=O)Nc1cc(Nc2nccc(-c3cn(C)c4ccccc34)n2)c(OC)cc1N1CCCC(N(C)C)C1 (stereo not shown) [34. (MsOH)3] |

| IC50 [1] | IC50 [2] | IC50 [3] | SMILES |
| --- | --- | --- | --- |
| 912 nM | 48.4 nM |  | C=CC(=O)Nc1cc(Nc2nccc(N3CCCc4ccccc43)n2)c(OC)cc1N(C)CCN(C)C [35. (MsOH)3] |
| 2170 nM | 18.1 nM |  | C=CC(=O)Nc1cc(Nc2cc(-c3cn(C)c4ccccc34)ccn2)c(OC)cc1N(C)CCN(C)C [43. (HCl)n] |
| 1090 nM | > 100 nM |  | C=CS(=O)(=O)Nc1cc(Nc2nccc(-c3cn(C)c4ccccc34)n2)c(OC)cc1N(C)CCN(C)C [45. (HCl)n] |
| 1170 nM | 155 nM |  | C=CS(=O)(=O)Nc1cc(Nc2nccc(-c3cn(C)c4ccccc34)n2)c(OC)cc1N(C)CCN1CCCC1 [46. (MsOH)2] |
| 1620 nM | 134 nM |  | C=CC(=O)Nc1cc(Nc2nccc(-c3cn(C)c4ccccc34)n2)c(OC)cc1N(C)CCCN(C)C [47. (MsOH)2] |
| 738 nM | 38.2 nM |  | C=CC(=O)Nc1cc(Nc2nccc(-c3cn(C)c4ccccc34)n2)c(OC)cc1N(C)CCN(C)CCOC [54. (HCl)n] |
| 3230 nM | > 100 nM |  | C=CC(=O)Nc1cc(Nc2nccc(-n3nc(C)c4ccccc43)n2)c(OC)cc1N(C)CCN(C)C [55. (HCl)n] |
|  | 8.2 nM | 280 nM | [2H]C([2H])([2H])N(CCN(C)c1cc(OC)c(Nc2nccc(N3CC(C)(C)c4ccccc43)n2)cc1NC(=O)C=C)C([2H])([2H])[2H] [57. (HCl)n] |
|  | 1.6 nM | 116 nM | [2H]C([2H])([2H])N(CCN(C)c1cc(OC)c(Nc2nccc(-n3c(=O)n(C)c4ccccc43)n2)cc1NC(=O)C=C)C([2H])([2H])[2H] [58. (HCl)n] |
|  | 1.5 nM | 29 nM | [2H]C([2H])([2H])N(CCN(C)c1cc(OC)c(Nc2nccc(-n3c(=O)[nH]c4ccccc43)n2)cc1NC(=O)C=C)C([2H])([2H])[2H] [61. (HCl)n] |
|  | 3.2 nM | 270 nM | [2H]C([2H])([2H])N(CCN(C)c1cc(OC)c(Nc2nccc(N3CCc4ccccc43)n2)cc1NC(=O)C=C)C([2H])([2H])[2H] [62. (HCl)n] |
|  | 4.8 nM | 410 nM | [2H]C([2H])([2H])N(CCN(C)c1cc(OC)c(Nc2nccc(-n3cc(C)c4ccccc43)n2)cc1NC(=O)C=C)C([2H])([2H])[2H] [63. (HCl)n] |
|  | 6 nM | 310 nM | [2H]C([2H])([2H])N(CCN(C)c1cc(OC)c(Nc2nccc(-n3nnc4ccccc43)n2)cc1NC(=O)C=C)C([2H])([2H])[2H] [64. (HCl)n] |
|  | 1.9 nM | 151 nM | [2H]C([2H])([2H])n1c(=O)n(-c2ccnc(Nc3cc(NC(=O)C=C)c(N(C)CCN(C)C)cc3OC)n2)c2ccccc21 [65. (MsOH)2] |
|  | 3.6 nM | 201 nM | C=CC(=O)Nc1cc(Nc2nccc(-n3c(=O)n(CC)c4ccccc43)n2)c(OC)cc1N(C)CCN(C)C [66. (MsOH)3] |
|  | 0.4 nM | 43 nM | [2H]C([2H])([2H])N(CCN(C)C)c1cc(OC)c(Nc2nccc(-n3c(=O)n(CC)c4ccccc43)n2)cc1NC(=O)C=C [68. (MsOH)2] |
|  | 0.8 nM | 63 nM | [2H]C([2H])([2H])N(CCN(C)c1cc(OC)c(Nc2nccc(-n3c(=O)n(CC)c4ccccc43)n2)cc1NC(=O)C=C)C([2H])([2H])[2H] [69. (MsOH)3] |
|  | 0.5 nM | 46 nM | [2H]C([2H])([2H])N(CCN(C)c1cc(OC)c(Nc2nccc(-c3cn(S(C)(=O)=O)c4ccccc34)n2)cc1NC(=O)C=C)C([2H])([2H])[2H] [70. (MsOH)2] |
| 2280 nM | 90.8 nM |  | C=CC(=O)Nc1cc(Nc2nccc(-c3cn(C)c4ccccc34)n2)c(OC)cc1N1CC(N2CCCC2)C1 [Example 23] |
| 538 nM | > 100 nM |  | C=CC(=O)Nc1cc(Nc2nccc(-c3cn(C)c4ccccc34)n2)c(OC)cc1OC1CN(C)C1 [Example 28] |
